Assay results taken from patent publication US4264577A, “Contraceptive methods and compositions” (Eli Lilly and Company, priority 1980, dated 1981).

How the values were obtained:
[1] = target: T1, Acrosin (purified from boar sperm) (Sus scrofa, UniProt P08001); experiment: Acrosin inhibition in vitro (BAPNA substrate); assay type: biochemical; set-up: Inhibition (units/mg): dose or concentration left out as unconfirmed; settings: for Inhibition (units/mg.): sodium salts; for Inhibition (units/mg): other salts
T1 construct: purified from boar sperm; from tissue; host or cells: boar sperm
Protocol: A control using the buffer solution without the test compound added is also run. A 200 μl-sample of the incubation mixture is then withdrawn and is added to a cuvette containing BAPNA (1 ml.) and triethanolamine buffer (2 ml.). The mixture is stirred and placed in a Gilford recording spectrophotometer. The increase in optical density at 383 nm is measured. One unit of acrosin activity is defined as the amount of acrosin which will cause an increase in optical density at 383 nm. of 0.001/minute. One unit of inhibitory activity is defined as the amount of inhibitor which will cause a reduction in the increase in optical density at 383 nm. of 0.001/minute.

[2] = target: T2, Testicular bovine hyaluronidase (Bos taurus, UniProt Q2YDK3); experiment: Hyaluronidase inhibition in vitro (chondroitin sulfate agar plate); assay type: biochemical; settings: for inhibition at 1000 µg/mL: Conc. of Test Solution 1 mg/ml; for % Inhibition: Conc. of Test Sol. 10 mg/ml
T2 construct: purchased Sigma Chemical Company; host or cells: bovine testis
T2 sequence (Q2YDK3 36-553): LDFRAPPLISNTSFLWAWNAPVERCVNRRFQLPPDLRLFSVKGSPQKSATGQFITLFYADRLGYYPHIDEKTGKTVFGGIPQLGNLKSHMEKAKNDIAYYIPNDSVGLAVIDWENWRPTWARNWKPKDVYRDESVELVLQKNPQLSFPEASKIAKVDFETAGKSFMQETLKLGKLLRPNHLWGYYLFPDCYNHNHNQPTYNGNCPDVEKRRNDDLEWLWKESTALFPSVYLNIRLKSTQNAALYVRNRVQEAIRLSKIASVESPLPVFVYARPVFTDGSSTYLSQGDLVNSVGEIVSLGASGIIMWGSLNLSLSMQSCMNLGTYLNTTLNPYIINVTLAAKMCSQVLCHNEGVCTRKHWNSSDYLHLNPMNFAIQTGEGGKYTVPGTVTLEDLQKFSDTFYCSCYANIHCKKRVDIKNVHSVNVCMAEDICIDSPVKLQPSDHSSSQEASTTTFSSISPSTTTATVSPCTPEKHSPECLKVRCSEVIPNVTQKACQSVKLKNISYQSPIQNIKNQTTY
Protocol: The inhibition of hyaluronidase is assessed using chondroitin sulfate as the enzyme substrate according to the following procedure:
Agar plates containing chondroitin sulfate (0.1 percent) are prepared by the following method: water solutions of 1 percent agarose, 2 M sodium chloride (0.1 vol.), 1 M sodium acetate (pH 5.0, 0.1 vol), and sodium azide (0.5 mg./ml., 0.1 vol.) are mixed and the mixture is brought to the boiling temperature. […] After cooling to about 45° C., the resulting mixture (20 ml.) is poured onto a petri dish. The plates are allowed to cool to room temperature. A well 2 mm. in diameter is then cut in the agar surface. […] A control using only the buffer solution without added test compound is also run. The plates are then incubated overnight (about 16 hours) at 37° C. The zones of hydrolysis of chondroitin sulfate by hyaluronidase are visualized by flooding the plate with 10 percent cetyl trimethyl ammonium bromide. The area of the zone is logarithmically proportional to the concentration of hyaluronidase. Inhibitor activity is determined by comparing the area of hydrolysis from the test compound to the area of hydrolysis from the control. The results are expressed as percent inhibition calculated as follows: [formula]

[3] = sodium salts, Conc. of Test Solution 10 mg/ml
[4] = Conc. of Test Solution 10 Mg/ml

T1 sequence (P08001 40-338 limits assumed): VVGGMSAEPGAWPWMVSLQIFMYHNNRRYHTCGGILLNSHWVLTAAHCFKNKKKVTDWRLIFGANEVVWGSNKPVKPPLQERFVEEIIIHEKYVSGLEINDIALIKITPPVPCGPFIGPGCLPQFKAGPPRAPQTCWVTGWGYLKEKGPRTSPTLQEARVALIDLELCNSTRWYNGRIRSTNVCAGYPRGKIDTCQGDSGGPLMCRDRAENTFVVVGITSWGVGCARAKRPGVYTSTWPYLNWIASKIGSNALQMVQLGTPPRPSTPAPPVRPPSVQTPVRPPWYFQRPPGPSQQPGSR
T1 sequence (P08001 17-39 limits assumed): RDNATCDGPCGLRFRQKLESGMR

Compound | Inhibition (units/mg.) ([1]; Conc. of Test Solution 1 Mg/ml) | inhibition at 1000 µg/mL ([2]; sodium salts) [%] | other results
CCCCCCCCCCC(CCCCCCCC)COS(=O)(=O)O (stereo not drawn) [2-octyldodecyl] | 132,000 units/mg. | 0 | 
CCCCCCCCCCCCC(C)OS(=O)(=O)O (stereo not drawn) [2-tetradecyl] | 87,000 units/mg. | 100 | 
CC(C)CCCC(C)CCCC(C)CCOS(=O)(=O)O (stereo not drawn) [3,7,11-trimethyldodecyl] | 29,000 units/mg. | 39 | 
CCCCCCCCCCC(CCC)OS(=O)(=O)O (stereo not drawn) [4-tetradecyl] | 102,000 units/mg. | 0 | 
CCCCCCCCC(CCCCC)OS(=O)(=O)O (stereo not drawn) [6-tetradecyl] | 90,000 units/mg. | 12 | 
CCCCCCCCCC(CCCCCC)OS(=O)(=O)O (stereo not drawn) [7-hexadecyl] | 123,000 units/mg. | 0 | 
CCCCCCCC(CCCCCC)OS(=O)(=O)O (stereo not drawn) [7-tetradecyl] | 112,000 units/mg. | 0 | 
CCCCCCCCC(CCCCCCC)OS(=O)(=O)O (stereo not drawn) [8-hexadecyl] | 28,000 units/mg. | 0 | 
CCCCCCCCCC(CCCCCCCC)OS(=O)(=O)O (stereo not drawn) [9-octadecyl] | 148,000 units/mg. | 7 | 
CC(C)CCCCCCCCCCCOS(=O)(=O)O [12-methyltridecyl] | 172,000 units/mg. | 7 | 
CCCCCCCCCCCCOS(=O)(=O)O [CH3 (CH2)11 diethanolammonium] |  |  | Inhibition (units/mg) [1]: 90,000 units/mg; inhibition at 10000 µg/mL ([2]; 16 h, other salts, Conc. of Test Sol. 10 mg/ul): 100%
CCCCCCCCCCCCCCOS(=O)(=O)O [CH3 (CH2)13 Ca] |  |  | Inhibition (units/mg) [1]: 48,000 units/mg; % Inhibition ([2]; other salts): 38%
CCCCCCCCCCCCCCOS(=O)(=O)O [CH3 (CH2)13 K] |  |  | Inhibition (units/mg) [1]: 62,000 units/mg; % Inhibition ([2]; other salts): 27%
CCCCCCCCCCCCCCOS(=O)(=O)O [CH3 (CH2)13 Li] |  |  | Inhibition (units/mg) [1]: 58,000 units/mg; % Inhibition ([2]; other salts): 27%
CCCCCCCCCCCCCCOS(=O)(=O)O [CH3 (CH2)13 Mg] |  |  | Inhibition (units/mg) [1]: 59,000 units/mg; % Inhibition ([2]; other salts): 14%
CCCCCCCCCCCCCCOS(=O)(=O)O [CH3 (CH2)13 NH4] |  |  | Inhibition (units/mg) [1]: 47,000 units/mg; % Inhibition ([2]; other salts): 14%

Compound | Inhibition (units/mg.) ([1]; Conc. of Test Solution 1 Mg/ml) | inhibition at 1000 µg/mL ([2]; sodium salts) [%] | other results
CCCCC/C=C\C/C=C\CCCCCCCCOS(=O)(=O)O [linoleyl] | 210,000 units/mg. | 0 | 
CCCC/C=C/CCCCCCCCOS(=O)(=O)O [myristeladyl] | 216,000 units/mg. | 13 | 
CCCC/C=C\CCCCCCCCOS(=O)(=O)O [myristoleyl] | 160,000 units/mg. | 13 | 
CCCCCCCCCCCCCCCCCCCCCCOS(=O)(=O)O [n-docosyl] | 300,000 units/mg. | 0 | 
CCCCCCCCCCCCOS(=O)(=O)[O-].[Na+] [n-dodecyl, Sodium lauryl sulfate] |  |  | inhibition at 10000 µg/mL [2, 3]: 71%
CCCCCCCCCCCCCCCCCCCCOS(=O)(=O)O [n-eicosyl] |  |  | Inhibition (units/mg.) [1, 4]: 31,800 units/mg.; inhibition at 10000 µg/mL [2, 3]: 0%
CCCCCCCCCCCOS(=O)(=O)O [n-hendecyl] |  |  | Inhibition (units/mg.) [1, 4]: 0 units/mg.; inhibition at 10000 µg/mL [2, 3]: 100%
CCCCCCCCCCCCCCCCCCCCCCCCCCCOS(=O)(=O)O [n-heptacosyl] | 100,000 units/mg. | 0 | 
CCCCCCCCCCCCCCCCCOS(=O)(=O)O [n-heptadecyl] |  |  | Inhibition (units/mg.) [1, 4]: 18,300 units/mg.; inhibition at 10000 µg/mL [2, 3]: 23%
CCCCCCCCCCCCCCCCOS(=O)(=O)O [n-hexadecyl] |  |  | Inhibition (units/mg.) [1, 4]: 15,200 units/mg.; inhibition at 10000 µg/mL [2, 3]: 75%
CCCCCCCCCCCCCCCCCCOS(=O)(=O)O [n-octadecyl] |  |  | Inhibition (units/mg.) [1, 4]: 26,000 units/mg.; inhibition at 10000 µg/mL [2, 3]: 30%
CCCCCCCCCCCCCCCOS(=O)(=O)O [n-pentadecyl] |  |  | Inhibition (units/mg.) [1, 4]: 14,300 units/mg.; inhibition at 10000 µg/mL [2, 3]: 60%
CCCCCCCCCCCCCCCCCCCCCCCCOS(=O)(=O)O [n-tetracosyl] | 123,000 units/mg. | 0 | 
CCCCCCCCCCCCCOS(=O)(=O)O [n-tridecyl] |  |  | Inhibition (units/mg.) [1, 4]: 3,200 units/mg.; inhibition at 10000 µg/mL [2, 3]: 80%
CCCCCCCC/C=C\CCCCCCCCOS(=O)(=O)O [oleyl] | 152,000 units/mg. | 0 | 
CC(C)CCCC(C)CCOS(=O)(=O)O (stereo not drawn) [tetrahydrogeranyl] | 240,000 units/mg. | 0 | 
